Experimental data as given in article PMC6389928, “Biomolecular Interaction, Anti-Cancer and Anti-Angiogenic Properties of Cobalt(III) Schiff Base Complexes” (Scientific Reports, 2019).
Like-named read-outs stand apart in the source and are kept apart here.

Assays:
[1] = system: monkey kidney epithelial cell Vero; experiment: MTT assay on Vero cells
Excerpt: (§1) The anti-proliferative property of the complexes 1 and 2 at different concentrations on A549 lung carcinoma cell and monkey kidney epithelial cell Vero was examined by adopting MTT assay (Fig. S7). […] The naked cobalt acetate and ligands salen and salophen were separately tested on A549 cells to understand if metal chelation is the principal basis of the anticancer activity of the complexes.
(§2) Culture: Human lung cancer cells (A549) were received from National Centre for Cell Science (NCCS) Pune, India. Vero cells were obtained from ATCC. The cells were grown at humidified atmosphere of 5% CO2 in an incubator at 37 °C (Forma, Thermo Scientific, USA) in DMEM medium (Invitrogen) containing 10% FBS (Sigma-Aldrich, St. Louis, Mo, USA), 100 μg/mL of penicillin and 100 μg/mL streptomycin were used as antibiotics (Himedia, Mumbai, India). […] The cells were seeded in 96 well plates (5000 A549 cells per well) and allowed to attach for 24 h. The cells were then incubated with different concentrations of the metal complexes 1 and 2 dissolved in 100% dimethyl sulfoxide (DMSO) (Sigma-Aldrich) and prepared to a final dilution of 0.02% of DMSO.
In the determination of IC50 value, 0.02% DMSO was used as the solvent control. After the end of incubation period (24 h), the medium was aspirated carefully and replaced with new medium. The formazan formed was dissolved in100 μL of 100% DMSO to each well. […]

[2] = system: CT-DNA; experiment: Cyclic voltammetry in the absence and presence of CT-DNA; assay type: binding; conditions: absence of DNA, 0.5% DMSO/PBS, glassy carbon vs saturated calomel; for cathodic peak potential Epc: Co(III) to Co(II)
Protocol: Electrochemical studies of complexes 1 and 2 were recorded in 0.5% DMSO/PBS buffer solution, with glassy carbon as working electrode vs saturated calomel as reference electrode and Pt wire as auxiliary electrode. […] On addition of CT-DNA to each cobalt complex solution, no new peak appeared. […] The decrease in voltammetric current in the presence of CT- DNA is possibly due to the diffusion of the complexes 1 and 2 bound to the large, slowly diffusing DNA molecule[39],[40]. The positive shifts indicate that complexes 1 and 2 bind to DNA through intercalation as observed in the spectroscopic studies[39],[40].
For cyclic voltammetry experiments, the electrode surfaces were freshly polished with alumina powder and then sonicated in ethanol and distilled water for 1 min prior to each experiment and the electrode was rinsed with doubly distilled water thoroughly between each polishing step. Finally, each electrode was cleaned thoroughly in an ultrasonic cleaner again with doubly distilled water. Cyclic voltammetric experiments were performed at room temperature in […] in a single compartment cell with a three-electrode configuration, namely, glassy carbon working electrode, platinum wire auxiliary electrode and saturated calomel as reference electrode. Before experiments, all solutions were deaerated with dry nitrogen gas for 10 min to remove dissolved oxygen and kept in nitrogen atmosphere throughout the experiments.

[3] = system: A549 lung carcinoma cell; experiment: MTT assay on A549 cells; conditions: A549 cell, 24 h
Excerpt: as §1, §2
In the determination of IC50 value, 0.02% DMSO was used as the solvent control. After the end of incubation period (24 h), the medium was aspirated carefully and replaced with new medium. The formazan formed was dissolved in100 μL of 100% DMSO to each well. The absorbance was monitored at 570 nm using a 96 well plate reader (Bio-Rad, Hercules, California, USA). All experiments were repeated for a minimum of three times when each experiment was done in two replicates.

[4] = system: developing blood vessels of the chicken chorioallantoic membrane; experiment: Chicken chorioallantoic membrane (CAM) assay; assay type: in vivo; conditions: for inhibition of vessel formation: 10 µM on filter paper discs, end of incubation (6 h); for angiogenic parameters (vessel size, vessel length, number of vessel branches): 10 µM, angioquant software, compared to control
Protocol: Chicken chorioallantoic membrane (CAM) assay is a well-known in vivo angiogenesis assay. To confirm the anti-angiogenic properties of cobalt complexes 1 and 2, CAM assay was performed. The complexes 1 and 2, on incubation for […], produced excellent inhibitory activity on the developing blood vessels. […] Several angiogenic parameters such as vessel size, vessel length and number of vessel branches were quantified using angioquant software as practiced in an earlier study[77] and represented as bar diagram (Fig. 5). […] This trend is also in tune with the DNA binding ability and anti-cancer activity of the complexes 1 and 2.
The Institutional Animal Care and Use Committee, an Association of New England Medical Center and Tufts (IACUC) and the National Institute of Health, USA, had established that a chick embryo that has not reached the 14th day of its developmental period would not experience pain and can, therefore, be used for experimentation without any ethical restrictions or prior protocol approval[95]–[97]. The anti-angiogenic activity was investigated on adopting the Chicken chorioallantoic membrane (CAM) assay. Briefly, specific pathogen-free (SPF) fertile chicken eggs were obtained from a government poultry farm. The eggs were incubated at 37 °C in a humid atmosphere. On the 5th day of incubation, the shell was cautiously broken using forceps. Precautions were taken to prevent puncture of any of the blood vessels during the transfer. The stock solutions were prepared by dissolving the complexes 1 and 2 in DMSO and then diluted suitably with the corresponding buffer to the required concentrations for all the experiments. The final DMSO concentration never exceeded 0.1%. Sterile filter paper discs (6 mm dia) soaked in solution of complexes (10 µM) were placed in 3 different positions over the generating blood vessels. For the control experiments sterile filter paper disks (6 mm dia) soaked with 10 µM of 0.1% of DMSO in PBS were used. Images of blood vessels (i.e., 0 h) were taken using stereo microscope (Nexius Zoom). The eggs were aseptically transferred in a humidified incubator at 37 °C and images were captured after 6 h incubation.

Row | Compound | concentration up to which no significant toxicity [1] [µM] | cathodic peak current ipc [2] | cathodic peak potential Epc [2] [V] | IC50 [3] [µM] | inhibition of vessel formation [4] | angiogenic parameters (vessel size, vessel length, number of vessel branches) [4] | concentration up to which no significant toxicity ([1]; Vero cells, MTT) [µM]
1 | CCCCCCCCCCCC[NH2+][Co-3]123([NH2+]CCCCCCCCCCCC)[O]c4ccccc4C=[N+]1CC[N+]2=Cc1ccccc1[O]3.[O-][Cl+3]([O-])([O-])[O-] [Complex 1, trans-[Co(salen)(DA)2](ClO4)] | > 150 | −1.184 × 10^−5 A | −0.490 | 80 | profound inhibition of vessel formation | reduction in all of these parameters compared to control | –
2 | CCCCCCCCCCCC[NH2+][Co-3]123([NH2+]CCCCCCCCCCCC)[O]c4ccccc4C=[N+]1c1ccccc1[N+]2=Cc1ccccc1[O]3.[O-][Cl+3]([O-])([O-])[O-] [Complex 2, trans-[Co(salophen)(DA)2](ClO4)] | – | −3.622 × 10^−6 A | −0.265 | 65 | profound inhibition of vessel formation | reduction in all of these parameters compared to control | > 150
